The results in this text go back to ChEMBL document CHEMBL1681722, “5-oxo-15-HETE: total synthesis and bioactivity” (Bioorg Med Chem Lett, 2011).

SMILES strings stand for the structures. The source made the active and inactive calls. The rule behind the calls is not given here.

For data set [1], the target named is T1, Oxoeicosanoid receptor 1 (Homo sapiens, UniProt Q8TDS5). Kind of data set: Agonist activity at 5-oxo-ETE receptor in human neutrophils assessed as stimulation of ca2+ mobilization. It is filed as functional. In general terms: Calcium assays in cells follow changes in intracellular calcium, usually with a dye or a luminescent sensor.
T1 sequence (Q8TDS5 whole entry): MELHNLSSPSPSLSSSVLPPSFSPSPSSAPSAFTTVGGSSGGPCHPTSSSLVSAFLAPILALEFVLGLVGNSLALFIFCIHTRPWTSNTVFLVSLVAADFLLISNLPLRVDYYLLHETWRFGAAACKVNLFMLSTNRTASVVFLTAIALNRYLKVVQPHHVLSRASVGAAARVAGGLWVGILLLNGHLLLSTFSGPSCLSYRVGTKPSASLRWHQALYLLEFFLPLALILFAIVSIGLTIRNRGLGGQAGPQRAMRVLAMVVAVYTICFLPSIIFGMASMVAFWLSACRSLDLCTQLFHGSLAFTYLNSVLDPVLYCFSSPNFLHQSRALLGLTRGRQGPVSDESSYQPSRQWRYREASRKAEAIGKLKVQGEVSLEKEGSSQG
Data set [2] deals with T1, Oxoeicosanoid receptor 1. Kind of data set: Agonist activity at 5-oxo-ETE receptor in human neutrophils assessed as stimulation of ca2+ mobilization at 100 nM in presence of 5-oxo-ETE. It is filed as functional.
The nature of data set [3]: Stability of the compound at -80 degC after 3 years by reversed-phase HPLC. The format is physicochemical. Conditions: 26298 h.

Consider `CCCCC/C=C\C/C=C\C/C=C\C=C\C(=O)CCCC(=O)O` [5-OXO-ETE], for which, at Oxoeicosanoid receptor 1 [1], the EC50 (usually the midpoint of the concentration-response curve) worked out at 7 nM.
Consider `CCCCC[C@H](O)/C=C/C=C\C/C=C\C=C\C(=O)CCCC(=O)O`, for which, at Oxoeicosanoid receptor 1 [1], the EC50 stood at 56 nM. Also, the outcome at Oxoeicosanoid receptor 1 [2] was inactive. Besides, the Stability result in data set [3] was “Stable”.
